Test results taken from patent publication US20240210412A1, “SULFONYL-TRIAZOLE COMPOUNDS USEFUL AS LIGANDS AND INHIBITORS OF PROSTAGLANDIN REDUCTASE 2” (University of Virginia Patent Foundation, priority 2021, published 2024).

Tests used:
[1] = target: T1, PTGR2 (Homo sapiens, UniProt Q8N8N7); assay: gel-based ABPP, HHS-475 probe, HEK293T cells expressing recombinant PTGR2; type: cell-based; details: 25 μM-0.1 μM, 2 h; HHS-475 25 μM 2 h; compared with AMC-0702, HHS-0701
T1 construct: host or cells: HEK293T
Procedure: HEK293T cells at 30-50% confluency were transfected with 2.6 μg of FAH or PTGR2 plasmid DNA in a serum-free media/polyethyleneimine solution for 48 hrs. The cells were washed once with warm, sterile DPBS (1×, 5 mL), and then 10 mL of serum-free media (supplemented with 1% L-glutamine) containing either DMSO or SuTEx fragment (in DMSO) was added. After 2 hrs, the cells were treated with 100 μM of SuTEx alkyne probe (HHS-475, 10 μL of 1000× DMSO stock) and incubated for an additional 2 hrs. The media was aspirated and cells washed with cold PBS (5 mL) and harvested. Cells were spun at 500×g for 5 min at 4° C. and supernatant was removed. Pellets were resuspended in 1 mL of cold DPB S and spun at 1,400×g for 3 min at 4° C. and supernatant was removed. The cells were lysed in PBS by sonication and fractionated (100,000×g, 45 min, 4° C.). The soluble fraction was diluted to 1 mg/mL in PBS and 49 μL was used for analysis. […] The samples were analyzed by SDS-PAGE (30 μL) and imaged by in-gel fluorescence scanning.
Confirmatory studies were also performed on prostaglandin reductase 2 (PTGR2) because of its role in the reduction of the bioactive lipid, 15-keto-PGE2^[17]. […] The remaining fluorescent signal detected on PTGR2 Y100F mutant protein is likely due to probe labeling of additional tyrosine sites identified on wild-type protein.
To assess the PTGR2 inhibitory activity of AMC-0702 and AMC-0703, HEK293T cells expressing PTGR2 were pretreated with vehicle, HHS-0101 (25 μM), HHS-0701 (25 μM), AMC-0702 (25 μM-0.1 μM), or AMC-0703 (25 μM-0.1 μM) for 2 hours followed by HHS-475 probe labelling in live cells (25 μM, 2 hours). Cells were lysed and probe-modified PTGR2 in proteomes detected by copper-catalyzed azide-alkyne cycloaddition conjugation of rhodamine-azide, SDS-PAGE, and in-gel fluorescence scanning. Inhibitory activity of compounds is determined by reductions in fluorescent band intensity from HHS-475 probe labeling of proteins detected in proteomes. […]

[2] = target: T1, PTGR2; assay: in vitro gel-based chemical proteomics competition, RJS-1027 probe; type: binding; details: inhibitor 0.5 μM, RJS-1027 1 μM, HEK293T soluble proteome
Procedure: Cell pellets were lysed in PBS buffer (EDTA free) by sonicating 3 times for 1 second×20% amplitude. The lysate was fractionated by centrifuging at 100,000×g for 45 min at 4° C., separating membrane and soluble fractions. Only the soluble fraction was used for in vitro and in situ experiments. Protein concentrations were measured using the Bio-Rad DC protein assay, and fractions were diluted to a concentration of 2 mg/mL in PBS. For live cell treated samples, 50 μL aliquots of proteome were used for gel experiments. For in vitro experiments, 48 μL aliquots of cell lysate were used for each inhibitor before adding 1 μL of 50× inhibitor stock (1 μM final) and incubated for 30 minutes at 37° C., then 1 μL of 50×probe stock (1 μM final) was added and the lysate incubated for 30 minutes at 37° C. […] 30 μL of each sample were separated by SDSPAGE and analyzed by in-gel fluorescence scanning for the rhodamine azide tag. […]
FIG. 9A is an image of an in vitro gel-based chemical proteomics assay using RJS-1027 (1 μM) as a probe to measure competition of binding PTGR2 with an inhibitor (0.5 μM). […] Quantitative comparison of inhibitor competition with probe labeling normalized to the negative control HHS-0101 is shown in FIG. 9B. […] Quantitative comparison of RJG-2036 competition with probe labeling normalized to the negative control HHS-0101 is shown in FIG. 9D.

[3] = target: T2, recombinant prostaglandin reductase 2 (PTGR2) (Homo sapiens, UniProt Q8N8N7); assay: in situ gel-based chemical proteomics competition, RJS-1027 probe; type: cell-based; details: RJS-1027 1 μM, normalized to PTGR2 WT, two biological replicates, read-out: 50% inhibitory concentration (IC50), competition with probe labeling
T2 construct: host or cells: HEK293T
Procedure: HEK293T cells were grown to 30-40% confluency and transiently transfected with wild type PTGR2 or Y100F PTGR2 mutant plasmid or DMSO by dissolving 20 μL of PEI (1 mg/mL) and 2.6 μg of plasmid in 0.6 mL of serum-free DMEM media. Transfected HEK293T cells were incubated at 37° C. with 5% CO2 and were harvested for in vitro experiments. For in situ experiments, cells were treated with either DMSO or inhibitors at a final concentration of 1 μM, or the indicated concentration, of inhibitors from a 1,000× stock in serum-free media. Cells were subsequently incubated at 37° C. with 5% CO2 for 2 hours, followed by treatment with DMSO or probe at a final concentration of 1 μM from a 1,000× stock in serum-free media. Cells were harvested and pelleted at 400×g for 5 min and the supernatant was decanted. […]
Cell pellets were lysed in PBS buffer (EDTA free) by sonicating 3 times for 1 second×20% amplitude. […] Protein concentrations were measured using the Bio-Rad DC protein assay, and fractions were diluted to a concentration of 2 mg/mL in PBS. […] 30 μL of each sample were separated by SDSPAGE and analyzed by in-gel fluorescence scanning for the rhodamine azide tag. […]
Anti-flag and GAPDH western blots are shown below the long gel and were performed separately. Quantitation of RJG-2036 competition with probe labeling normalized to the PTGR2 WT with RJS-1027 as a probe is shown in FIG. 10C.

T1 sequence (Q8N8N7 whole entry): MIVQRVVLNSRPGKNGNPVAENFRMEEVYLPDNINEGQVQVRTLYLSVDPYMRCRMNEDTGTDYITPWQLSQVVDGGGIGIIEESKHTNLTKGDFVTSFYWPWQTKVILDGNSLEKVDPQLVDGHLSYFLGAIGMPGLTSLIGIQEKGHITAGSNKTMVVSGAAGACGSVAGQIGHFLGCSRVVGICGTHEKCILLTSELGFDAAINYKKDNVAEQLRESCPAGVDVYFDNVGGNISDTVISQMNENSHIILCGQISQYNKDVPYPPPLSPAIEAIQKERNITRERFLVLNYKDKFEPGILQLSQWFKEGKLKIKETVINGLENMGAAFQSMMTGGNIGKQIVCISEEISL
T2 sequence (Q8N8N7 whole entry): as above

potency against PTGR2 (reduction of HHS-475 probe labeling) [1] | competition of probe binding to PTGR2 [2] | IC50 [3] | Compound
highest potency against PTGR2 | potent inhibitors |  | COc1ccccc1N1CCN(C(=O)c2ccc(S(=O)(=O)n3cncn3)cc2)CC1 [AMC-0703, (4-((1H-1,2,4-triazol-1-yl)sulfonyl)phenyl)(4-(2-methoxyphenyl)piperazin-1-yl)methanone]
 | potent inhibitors |  | COc1ccccc1N1CCN(C(=O)c2ccc(S(=O)(=O)n3cnc(-c4cccnc4)n3)cc2)CC1 [RJG-1189, (4-(2-methoxyphenyl)piperazin-1-yl)(4-((3-(pyridin-3-yl)-1H-1,2,4-triazol-1-yl)sulfonyl)phenyl)methanone]
 |  | 89.5 nM | COc1ccccc1N1CCN(C(=O)c2cccc(S(=O)(=O)n3cncn3)c2)CC1 [RJG-2036, (3-((1H-1,2,4-triazol-1-yl)sulfonyl)phenyl)(4-(2-methoxyphenyl)piperazin-1-yl)methanone]
